# Test results published in patent publication US8193213B2, “Spermicidal and/or antifungal composition and methods of using the same” (priority 2003, dated 2012).
# Marks after values point to notes of the source that are not given here.
# Tests used:
# [1] = system: Aspergillus fumigatus; experiment: Antifungal susceptibility testing (NCCLS, MIC/MFC) against A. fumigatus; assay type: cell-based; parameters: Lowest [Active]: unit not given here; conditions: for CFU for MFC at 100 / CFU for MFC at 200 / CFU for MFC at 300 / Lowest [Active]: A. fumigatus (48 hours); for CFU for MFC at 100: concentration 100; for CFU for MFC at 200: concentration 200; for CFU for MFC at 300: concentration 300; for Lowest [Active]: concentrations 300, 200, 100, unit not given, N/A = no active concentration; for Lowest MIC: lowest concentration that appears to have no growth
# Method: (§1) Antifungal susceptibility testing was performed following the NCCLS guidelines with minor modifications. Briefly, a suspension of Candida albicans cells was prepared from pure cultures grown overnight on yeast-malt extract (YM) agar at 35° C. Several small colonies were removed from a YM agar plate and transferred to 5 ml of 0.85% saline. The cells were suspended by 15 seconds of vortexing and the cell density of the resulting suspension was determined using a spectrophotometer. The cell density was adjusted by addition of 0.85% saline until the transmittance matched that of a 0.5 McFarland standard when measured at a wavelength of 530 nm. An aliquot of this suspension was diluted 1:1000 in RPMI-MOPS to yield a working suspension. A similar suspension of Aspergillus fumigatus spores was obtained by using spores stored at […] in 0.85% saline. These spores were diluted in 0.85% saline to match the McFarland standard transmittance. This suspension was then further diluted 1:50 in RPMI-MOPS to produce the working inoculum suspension.
# (§2) Dilution series of the test compounds were made in RPMI-MOPS containing 2% DMSO. An aliquot of each dilution was added in duplicate to the wells of a sterile 96-well, flat bottom microtiter plate. Then, an aliquot of either the C. albicans cell suspension or the A. fumigatus spore suspension were added to each well for a final volume of 200 μl. The plates were then incubated at […]. […] A similar determination was made for the A. fumigatus plates after 48 hours. […] The numbers of colony forming units (CFU) were counted and these values used to calculate the percent survival of cells or spores in inocula relative to the number of CFUs in the working inoculum suspension. The minimum fungicidal concentration (MFC) was the lowest concentration of test compound with a percent survival of less than 2%.
# [2] = system: Candida albicans; experiment: Antifungal susceptibility testing (NCCLS, MIC/MFC) against C. albicans; assay type: cell-based; parameters: Lowest [Active]: unit not given here; conditions: for CFU for MFC at 200: concentration 200; for CFU for MFC at 300: concentration 300; for Lowest [Active]: concentrations 300, 200, 100, unit not given, N/A = no active concentration; for Lowest MIC: lowest concentration that appears to have no growth
# Method: as §1, §2
# [3] = system: rabbit ejaculated sperm; experiment: Direct effect on sperm motility, rabbit ejaculated sperm; assay type: cell-based; conditions: for Motility (%) at 60 Minutes: rabbit ejaculate diluted 1:10, 34° C., control 76.6
# Method: (§3) Method for Determining Direct Effect of an Agent on Sperm Motility The direct effect of an agent on sperm motility was determined by using the following protocols. Basically, sperm are obtained either from the cauda epididymis, as in the case of the rat, or ejaculated sperm collected using an artificial vagina, as in the rabbit. The initial motility of the sperm is determined manually or by using a Hamilton Thorn IVOS sperm analyzer. The sperm are then kept at a constant temperature of 34° C., diluted to a consistent concentration of 10×10^6/ml, and added to about 3 ml of buffer or media. The motility is determined again at this point and any change is recorded. Different concentrations of the agent to be tested are then added to the sperm preparation. The sperm samples are then held at the same temperature for one hour and the motility is determined. The results are recorded as the percent of motile sperm in the sample. The Sperm were kept at 34° C. throughout the experimental period. Sperm concentration was be approximately 10×10^6/ml (note, the sample may have had to be diluted with buffer or media to reach this concentration). For the Rabbit Studies: (Using Ejaculated Sperm) A 1 mM stock of the indenopyridine in M-199 media with BSA (2.5 mg in 5=0.5 ug/ul; 0.5 ug/ml=1 uM) was prepared and added as follows: 1 uM=1 ul stock+949 ul M-199 media with BSA+50 ul of the diluted sperm 3 uM=3 ul stock+947 ul M-199 media with BSA+50 ul of the diluted sperm 10 uM=10 ul stock+940 ul M-199 media with BSA+50 ul of the diluted sperm 30 uM=30 ul stock+920 ul M-199 media with BSA+50 ul of the diluted sperm 100 uM=100 ul stock+850 ul M-199 media with BSA+50 ul of the diluted sperm 300 uM=300 ul stock+650 ul M-199 media with BSA+50 ul of the diluted sperm 1000 uM=1000 ul stock+50 ul of the diluted sperm Sperm motility was determined after 1 hour. Slides were made to determine morphology changes and eosin was added to determine cell death.
# [4] = system: rat cauda sperm; experiment: Direct effect on sperm motility, rat cauda epididymis sperm; assay type: cell-based; conditions: control: progressive motility
# Method: as §3, with “the Rat” for “the Rabbit”, “(Using Sperm from the Cauda Epididymis)” for “(Using Ejaculated Sperm)”, “in HBSS buffer+BSA (5” for “in M-199 media with BSA (2.5”, “in 10=0.5” for “in 5=0.5”, “ul HBSS buffer+BSA+50” for “ul M-199 media with BSA+50”, “Sperm Motility” for “Sperm motility”
Structure (SMILES),CFU for MFC at 100 [1],CFU for MFC at 200 [1],CFU for MFC at 300 [1],Lowest [Active] [1],CFU for MFC at 200 ([2]; C. albicans (19 hours)),CFU for MFC at 300 ([2]; C. albicans (19 hours)),Lowest [Active] ([2]; C. albicans (19 hours)),also measured
CCN1CCC2C(C1)c1ccc(C)cc1C2c1ccc(C(=O)OC)cc1.Cl (stereo not drawn) [Compound 4587-056l],Cidal (Cidal = >98% killed),Cidal (Cidal = >98% killed),Cidal (Cidal = >98% killed),100,Cidal (Cidal = >98% killed),Cidal (Cidal = >98% killed),200,
CCN1CCC2C(C1)c1cc(I)c(C)cc1C2c1ccc(C(=O)OC)cc1.Cl (stereo not drawn) [Compound 4587-073l],Cidal (Cidal = >98% killed),Cidal (Cidal = >98% killed),Cidal (Cidal = >98% killed),100,Cidal (Cidal = >98% killed),Cidal (Cidal = >98% killed),100,"Motility (%) at 60 Minutes ([3]; +1 μM): 73.0%; Motility (%) at 60 Minutes ([3]; +3 μM): 68.4%; Motility (%) at 60 Minutes ([3]; +10 μM): 67.6%; Motility (%) at 60 Minutes ([3]; +30 μM): 61.9%; Motility (%) at 60 Minutes ([3]; +100 μM): 15.2 * %; Motility (%) at 60 Minutes ([3]; +300 μM): 0%; Motility (%) at 60 Minutes ([3]; +1000 μM): 0 ** %; Quality of motility (footnote *) ([3]; rabbit sperm, +100 μM, 60 minutes): * Motility not progressive - twitching; Sperm appearance ([3]; rabbit sperm, +1000 μM, 60 minutes): ** Sperm appeared to be “disintegrating”- sperm heads contain many vacuoles and membranes are not always intact; Motility (%) at 60 Minutes (in words) ([4]; +1 μM): Progressive motility-equal to control; Motility (%) at 60 Minutes (in words) ([4]; +3 μM): Progressive motility diminished; Motility (%) at 60 Minutes (in words) ([4]; +10 μM): No progressive motility - twitching; Motility (%) at 60 Minutes (in words) ([4]; +30 μM): Same as for 10 μM; Motility (%) at 60 Minutes (in words) ([4]; +100 μM): Death; CFU for MFC at 100 ([2]; C. albicans (19 hours), concentration 100): Cidal (Cidal = >98% killed)"
CCN1CC[C@@H]2[C@@H](c3ccc(C(=O)OC)cc3)c3cc(C)ccc3[C@@H]2C1.Cl (racemic),,,,,,,,melting point: 204 °C
CCN1CCC2C(C1)c1ccc(C)cc1C2c1ccc(OC)cc1.Cl (racemic) [Compound 4587-029],Cidal (Cidal = >98% killed),Cidal (Cidal = >98% killed),Cidal (Cidal = >98% killed),100,"Static (Static = well looked clear, but <98% killed)",Cidal (Cidal = >98% killed),200,
CCN1CCC2C(C1)c1ccc(C)cc1C2c1ccc(C)cc1.Cl (stereo not drawn) [Compound 4587-003],,,,,,,,"Lowest MIC ([1]; A. fumigatus): 25 µg/mL; Lowest MFC ([1]; A. fumigatus, lowest concentration that kills >= 98% of the cells in the well): 25 µg/mL; Lowest MIC ([2]; C. albicans): 50 µg/mL; Lowest MFC ([2]; C. albicans, lowest concentration that kills >= 98% of the cells in the well): 75 µg/mL"
CCN1CCC2C(C1)c1ccccc1C2c1ccccc1.Cl (racemic) [Compound 4587-037],,Cidal (Cidal = >98% killed),"Static* (Static = well looked clear, but <98% killed)",200,,Cidal (Cidal = >98% killed),300,
"C[C@@H]1[C@H](O)[C@@H](C)/C=C/C=C/C=C/C=C/C=C/C=C/C=C/[C@H](O[C@@H]2O[C@H](C)[C@@H](O)[C@H](N)[C@@H]2O)C[C@@H]2O[C@](O)(C[C@@H](O)C[C@@H](O)[C@H](O)CC[C@@H](O)C[C@@H](O)CC(=O)O[C@H]1C)C[C@H](O)[C@H]2C(=O)O [AMP B, reference compound]",,,,,,,,Lowest MIC ([1]; A. fumigatus): 2 µg/mL; Lowest MIC ([2]; C. albicans): 0.5 µg/mL
